Structures are written as SMILES. pIC50: −log10 of the molar value. Counter-ions that a name gives are not always drawn.

The subject of this assay is IL-2 production. Nature of the assay: Inhibition of IL-2 production in PHA-activated Jurkat cells (ELISA). The class given is cell-based. Conditions: PHA 2.5 μg/mL, 20 hours at 37° C., IL-2 by ELISA. On the procedure: Jurkat cells were placed in a 96 well plate (0.5 million cells per well in 1% FBS medium) then a test compound of this invention was added at different concentrations. After 10 minutes, the cells were activated with PHA (final concentration 2.5 μg/mL) and incubated for 20 hours at 37° C. under CO2. The final volume was 200 μL. Following incubation, the cells were centrifuged and the supernatants collected and stored at −70° C. prior to assaying for IL-2 production. A commercial ELISA kit (IL-2 Eli-pair, Diaclone Research, Besancon, France) was used to detect production of IL-2, from which dose response curves were obtained. The IC50 value was calculated as the concentration at which 50% of maximum IL-2 production after stimulation was inhibited versus a non-stimulation control.
On the technique in general: ELISA stands for enzyme-linked immunosorbent assay.

One may read the pIC50 as the negative decadic logarithm of the IC50, by convention in mol/L. Low readings indicate a high IC50, high ones a low IC50. For `COC(=O)c1cc(-c2ccc(NC(=O)c3c(F)cccc3F)cc2)c(C)s1` [Compound 1, 4-[4-(2,6-Difluoro-benzoylamino)-phenyl]-5-methyl-thiophene-2-carboxylic acid methyl ester], the pIC50 (Homo sapiens, Jurkat, 20 h) is 9.00. For `COC(=O)c1cc(-c2ccc(NC(=O)c3ccncc3C)cc2)c(C)s1` [Compound 2, 5-Methyl-4-{4-[(3-methyl-pyridine-4-carbonyl)-amino]-phenyl}-thiophene-2-carboxylic acid methyl ester], the pIC50 (Homo sapiens, Jurkat, 20 h) was 8.52. `Cc1sc(-c2cnco2)cc1-c1ccc(NC(=O)c2c(F)cccc2F)cc1` [Compound 3, 2,6-Difluoro-N-[4-(2-methyl-5-oxazol-5-yl-thiophen-3-yl)-phenyl]-benzamide] gave a pIC50 (Homo sapiens, Jurkat, 20 h) of 8.52. In the case of `COC(=O)c1cc(C)c(-c2ccc(NC(=O)c3c(F)cccc3F)cc2)s1` [Compound 4, 5-[4-(2,6-Difluoro-benzoylamino)-phenyl]-4-methyl-thiophene-2-carboxylic acid methyl ester], the pIC50 (Homo sapiens, Jurkat, 20 h) was 9.00. As to `COC(=O)c1cc(-c2ccc(NC(=O)c3c(F)cccc3F)cc2)c(C)o1` [Compound 8, 4-[4-(2,6-Difluoro-benzoylamino)-phenyl]-5-methyl-furan-2-carboxylic acid methyl ester], the pIC50 (Homo sapiens, Jurkat, 20 h) is 8.15.

For the setting “Homo sapiens, Jurkat, 20 h”, `Cc1nc(N2CCOCC2)sc1-c1ccc(NC(=O)c2c(F)cccc2F)cc1` [Compound 9, 2,6-Difluoro-N-[4-(4-methyl-2-morpholin-4-yl-thiazol-5-yl)-phenyl]-benzamide] gave a pIC50 of 6.97. Same read-out and setting: under `Cc1cnccc1C(=O)Nc1ccc(-c2sc(N3CCOCC3)nc2C)cc1` [Compound 10, 3-Methyl-N-[4-(4-methyl-2-morpholin-4-yl-thiazol-5-yl)-phenyl]-isonicotinamide] stands 6.63. The same measure, in the same setting: under `Cc1cc(-c2ncco2)sc1-c1ccc(NC(=O)c2c(F)cccc2F)cc1` [Compound 39, 2,6-Difluoro-N-[4-(3-methyl-5-oxazol-2-yl-thiophen-2-yl)-phenyl]-benzamide] stands 9.00; under `Cc1cc(NC(=O)c2c(F)cccc2F)ccc1-c1nc(C(F)(F)F)cs1` [Compound 91, 2,6-Difluoro-N-[3-methyl-4-(4-trifluoromethyl-thiazole-2-yl)-phenyl]-benzamide], less than 6.00; under `Cc1cc(-c2ncco2)sc1-c1ccc(NC(=O)c2snnc2C)cc1` [Compound 92, 4-Methyl-[1,2,3]thiadiazole-5-carboxylic acid [4-(3-methyl-5-oxazol-2-yl-thiophen-2-yl)-phenyl]-amide], 8.40. Where the note is “Homo sapiens, Jurkat, 20 h”, `Cc1cnccc1C(=O)Nc1ccc(-c2sc(-c3ncco3)cc2C)cc1` [Compound 93, 3-Methyl-N-[4-(3-methyl-5-oxazol-2-yl-thiophen-2-yl)-phenyl]-isonicotinamide] had a pIC50 of 8.52. Same read-out and setting: for `Cc1cnccc1C(=O)Nc1ccc(-c2sc(-c3ccno3)cc2C)cc1` [Compound 94, 3-Methyl-N-[4-(3-methyl-5-isoxazol-5-yl-thiophen-2-yl)-phenyl]-isonicotinamide] the value was 8.28. In turn, `Cc1cnccc1C(=O)Nc1ccc(-c2sc(-c3ccno3)cc2C)cc1` [Compound 95, 3-Methyl-N-[4-(3-methyl-5-isoxazol-5-yl-thiophen-2-yl)-phenyl]-isonicotinamide, hydrochloride] had a negative-log IC50 (pIC50) (hydrochloride) of 8.36. `Cc1cnccc1C(=O)Nc1ccc(-c2sc(-c3cccnc3)cc2C)cc1` [Compound 96, 3-Methyl-N-[4-(3-methyl-5-pyridin-3-yl-thiophen-2-yl)-phenyl]-isonicotinamide] gave a pIC50 (Homo sapiens, Jurkat, 20 h) of 8.68. The same measure, in the same setting: under `Cc1cnccc1C(=O)Nc1ccc(-c2sc(-c3cncnc3)cc2C)cc1` [Compound 97, 3-Methyl-N-[4-(3-methyl-5-pyrimidin-5-yl-thiophen-2-yl)-phenyl]-isonicotinamide] stands 8.14; under `Cc1cc(-c2cncnc2)sc1-c1ccc(NC(=O)c2snnc2C)cc1` [Compound 98, 4-Methyl-[1,2,3]thiadiazole-5-carboxylic acid [4-(3-methyl-5-pyrimidin-5-yl-thiophen-2-yl)-phenyl]-amide], 8.03. On to `Cc1cc(-c2ccncc2)sc1-c1ccc(NC(=O)c2snnc2C)cc1` [Compound 99, 4-Methyl-[1,2,3]thiadiazole-5-carboxylic acid [4-(3-methyl-5-pyridin-4-yl-thiophen-2-yl)-phenyl]-amide, hydrochloride], for which the pIC50 (Homo sapiens, Jurkat, 20 h) is 8.28. For the setting “hydrochloride”, `Cc1cc(-c2ccccn2)sc1-c1ccc(NC(=O)c2snnc2C)cc1` [Compound 100, 4-Methyl-[1,2,3]thiadiazole-5-carboxylic acid [4-(3-methyl-5-pyridin-2-yl-thiophen-2-yl)-phenyl]-amide, hydrochloride] showed a pIC50 of 7.98. Take `Cc1cnccc1C(=O)Nc1ccc(-c2sc(-c3ccncc3)cc2C)cc1` [Compound 101]: where the note is “Homo sapiens, Jurkat, 20 h”, the pIC50 is 8.40. Still for that read-out and setting: under `Cc1cc(-c2ccno2)sc1-c1ccc(NC(=O)c2cnns2)cc1` [Compound 102, [1,2,3]thiadiazole-5-carboxylic acid [4-(3-methyl-5-isoxazol-5-yl-thiophen-2-yl)-phenyl]-amide] stands 7.66; under `Cc1cc(-c2ccno2)sc1-c1ccc(NC(=O)c2cccn2C)cc1` [Compound 103, 1-Methyl-1H-pyrrol-2-carboxylic acid [4-(3-methyl-5-isoxazol-5-yl-thiophen-2-yl)-phenyl]-amide], 8.52. The compound `Cc1cc(-c2ccno2)sc1-c1ccc(NC(=O)c2ccnn2C)cc1` [Compound 104, 1-Methyl-1H-pyrazol-5-carboxylic acid [4-(3-methyl-5-isoxazol-5-yl-thiophen-2-yl)-phenyl]-amide] had a pIC50 (Homo sapiens, Jurkat, 20 h) of less than 6.00. Take `Cc1cc(-c2ccno2)sc1-c1ccc(NC(=O)c2cnsc2)cc1` [Compound 105, Isothiazol-4-carboxylic acid [4-(3-methyl-5-isoxazol-5-yl-thiophen-2-yl)-phenyl]-amide]: the pIC50 (Homo sapiens, Jurkat, 20 h) was 8.12. In turn, `Cc1cc(-c2ccno2)sc1-c1ccc(NC(=O)c2csnn2)cc1` [Compound 106, [1,2,3]thiadiazol-4-carboxylic acid [4-(3-methyl-5-isoxazol-5-yl-thiophen-2-yl)-phenyl]-amide] gave a pIC50 (Homo sapiens, Jurkat, 20 h) of 7.08.

For the setting “Homo sapiens, Jurkat, 20 h”, `Cc1cncnc1C(=O)Nc1ccc(-c2sc(-c3ccno3)cc2C)cc1` [Compound 107, 5-Methyl-pyrimidine-4-carboxylic acid [4-(3-methyl-5-isoxazol-5-yl-thiophen-2-yl)-phenyl]-amide] gave a pIC50 of 8.55. `Cc1cnccc1C(=O)Nc1ccc(-c2sc(-c3ncco3)cc2C)cc1` [Compound 109, 3-Methyl-N-[4-(3-methyl-5-oxazol-2-yl-thiophen-2-yl)-phenyl]-isonicotinamide] gave a pIC50 of 8.57. In the case of `Cc1cc(-c2cnco2)sc1-c1ccc(NC(=O)c2scnc2Cl)cc1` [Compound 110, 4-Chloro-thiazol-5-carboxylic acid [4-(3-methyl-5-oxazol-5-yl-thiophen-2-yl)-phenyl]-amide], the pIC50 (Homo sapiens, Jurkat, 20 h) is 8.12. Still for that read-out and setting: under `Cc1cnccc1C(=O)Nc1ccc(-c2sc(-c3nccs3)cc2C)cc1` [Compound 111, 3-Methyl-N-[4-(3-methyl-5-thiazol-2-yl-thiophen-2-yl)-phenyl]-isonicotinamide] stands 8.06; under `Cc1cnccc1C(=O)Nc1ccc(-c2sc(-c3cnco3)cc2Cl)cc1` [Compound 112, 3-Methyl-N-[4-(3-chloro-5-oxazol-5-yl-thiophen-2-yl)-phenyl]-isonicotinamide], 8.17.

`Cc1cnccc1C(=O)Nc1ccc(-c2sc(-c3ccno3)cc2Cl)cc1` [Compound 113, 3-Methyl-N-[4-(3-chloro-5-isoxazol-5-yl-thiophen-2-yl)-phenyl]-isonicotinamide] gave a pIC50 (Homo sapiens, Jurkat, 20 h) of 8.00. As to `O=C(Nc1ccc(-c2sc(-c3ccno3)cc2Cl)cc1)c1ccncc1F` [Compound 114, 3-Fluoro-N-[4-(3-chloro-5-isoxazol-5-yl-thiophen-2-yl)-phenyl]-isonicotinamide], the pIC50 (Homo sapiens, Jurkat, 20 h) was 7.96. Same read-out and setting: for `Cc1cncnc1C(=O)Nc1ccc(-c2sc(-c3cnco3)cc2C)cc1` [Compound 115, 5-Methyl-pyrimidine-4-carboxylic acid [4-(3-methyl-5-oxazol-5-yl-thiophen-2-yl)-phenyl]-amide] the value was 8.02; for `Cc1cc(-c2cnco2)sc1-c1ccc(NC(=O)c2cccn2C)cc1` [Compound 116, 1-Methyl-1H-pyrrol-2-carboxylic acid [4-(3-methyl-5-oxazol-5-yl-thiophen-2-yl)-phenyl]-amide], 8.32. On the same count and under the same terms, for `Cc1cc[nH]c1C(=O)Nc1ccc(-c2sc(-c3ccno3)cc2C)cc1` [Compound 117, 3-Methyl-1H-pyrrol-2-carboxylic acid [4-(3-methyl-5-isoxazol-5-yl-thiophen-2-yl)-phenyl]-amide] the value was 7.31. Consider `Cc1cc(-c2ccncc2)sc1-c1ccc(NC(=O)c2snnc2C)cc1` [Compound 118, 4-Methyl-[1,2,3]thiadiazole-5-carboxylic acid [4-(3-methyl-5-pyridin-4-yl-thiophen-2-yl)-phenyl]-amide], for which the pIC50 is 8.21.

The compound `Cc1cc(-c2ccccn2)sc1-c1ccc(NC(=O)c2snnc2C)cc1` [Compound 119, 4-Methyl-[1,2,3]thiadiazole-5-carboxylic acid [4-(3-methyl-5-pyridin-2-yl-thiophen-2-yl)-phenyl]-amide] showed a pIC50 of 8.32. As to `Cc1ncsc1-c1ccc(NC(=O)c2c(F)cccc2F)cc1` [Compound 120, 2,6-Difluoro-N-[4-(4-methyl-thiazole-5-yl)-phenyl]-benzamide], the pIC50 (Homo sapiens, Jurkat, 20 h) is less than 6.00.

The values above are taken from US20070275960A1, “Phenyl and pyridyl compounds for inflammation and immune-related uses” (Synta Pharmaceuticals Corp., priority 2006, published 2007).
